{
  "source": "patent US4883801A",
  "about": "“Xanthine derivative pest control agents” (priority 1986, dated 1989)",
  "key": {"[1]": {"system": "hornworm nerve cord PDE (cyclic AMP phosphodiesterase)", "assay": "Inhibition of cyclic AMP phosphodiesterase activity in homogenates of tobacco hornworm nerve cord", "assay_type": "biochemical, Manduca sexta", "details": "for activity of structurally similar compounds tested as described in Example 46: Example 47; for PDE inhibition (in words): FIG. 1D", "procedure": "Nerve cord was dissected from 40-60 mm long M. sexta larvae, cleaned, and homogenized (2 mg/ml) in 6 Mm Tris-maleate, pH 7.4. PDE activity was measured (4 min. incubation at 30° C.) in an assay system (0.1 ml) containing 80 mM Tris-maleate, pH 7.4; 6 mM Mg--SO4; 10^-7 M^3 H-cyclic AMP; and tissue homogenate (0.02 ml). Nerve cord was evaluated in the presence and the absence of the xanthine derivative. For purposes of the evaluation, the rate of formation of ^3 H-5' AMP was measured using the technique described in Filburn, C. […] The values shown in FIG. 1D are the mean (±SEM) of three separate experiments."}, "[2]": {"system": "light organ octopamine-stimulated adenylate cyclase", "details": "cited from earlier work"}, "[3]": {"system": "cockroach brain phosphodiesterase", "details": "in vitro; cited from earlier work"}, "[4]": {"system": "cockroach brain adenylate cyclase", "details": "in vitro; cited from earlier work"}, "[5]": {"system": "Manduca sexta (tobacco hornworm) larvae", "assay": "Antifeeding test: tomato leaves sprayed with compound, tobacco hornworm larvae", "assay_type": "in vivo"}, "[6]": {"assay": "Tissue level of theophylline in larvae after feeding on sprayed leaves (immunoenzymatic assay)", "assay_type": "in vivo, Manduca sexta", "details": "1% spray, three days of feeding; mean ± deviation, two groups of six pooled animals; 4320 min; read-out: internal theophylline concentration of larvae", "procedure": "To determine if the dosage of xanthine derivatives described in experiments 4, 7 and 8-11 and ingested by the larvae (causing pestistatic and pesticidal activity in vivo) were actually absorbed by the animals and were sufficient to inhibit PDE in vitro, additional experiments were carried out in order to estimate tissue levels of xanthine derivative following three days of feeding on various doses of the derivative. Groups of six larvae were placed on leaves treated with vehicle or theophylline spray. After three days, leaf area was recorded and larvae (alive or dead) were rinsed to remove any compound adhering to their cuticle, homogenized whole, centrifuged, and the cell-free supernatant assayed for theophylline content by immunoenzymatic assay (Emit-AAD theophylline assay (Syva Company, Palo Alto, CA.)). […] From mammalian studies, it is known that theophylline penetrates freely into all body compartments (Rall, T. W., supra.). […] This observation tends to rule out the hypothesis wherein adenosine receptors are involved as a mechanism for the antifeeding effects of the xanthine derivatives, since, in vertebrates, xanthine derivatives such as theophylline are competitive adenosine receptor antagonists, but exert such antagonism at much lower concentrations, typically 1-25 micromoles. […]"}, "[7]": {"system": "Culex (mosquito) larvae", "assay": "Killing of Culex larvae in solution", "assay_type": "in vivo"}, "[8]": {"system": "Tribolium confusum (flower beetle) adults", "assay": "Tribolium confusum adults: acute effect and chronic reproduction test", "assay_type": "in vivo"}, "[9]": {"system": "Tribolium castaneum (flower beetle) adults", "assay": "Tribolium castaneum adults: acute effect and chronic reproduction test", "assay_type": "in vivo"}, "[10]": {"system": "adenosine receptor", "details": "Bruns et al., cited from earlier work"}, "[11]": {"system": "larvae of Manduca sexta (tobacco hornworm)", "assay": "Feeding on artificial media containing the test material", "assay_type": "in vivo", "details": "concentrations found naturally in undried tea leaves or coffee beans", "procedure": "Various concentrations of finely powdered tea leaves or powdered coffee beans were mixed in artificial media which was then plated out in small petri dishes and allowed to harden. […] At concentrations greater than 10% (for coffee) or 3% (for tea), larvae were killed within 24 hours.\nThe larvae of Manduca sexta were fed on either artificial or natural food. When added to artificial media, caffeine (the major methylxanthine found in tea and coffee) exerted behavioral effects that were qualitatively similar to those of the tea and coffee described above. […] Further, the dried tea leaves, which contain 2-3 times the caffeine content of dried coffee beans, were about 2-3 times as effective as coffee beans in inhibiting weight gain. Further, the concentrations of caffeine which are found naturally in undried tea leaves (0.68-2.1%) or coffee beans (0.8-1.8%) were sufficient to kill most Manduca larvae. Thus, caffeine functions as an endogenous insecticide."}, "[12]": {"system": "Callosobrucaus chinensis", "details": "concentration of 1.5%; cited from earlier work"}, "[13]": {"details": "highest dose usually a 3% spray solution"}, "[14]": {"details": "spray on tomato leaves, calculated from dose-response curves, Manduca sexta 6 per leaf"}},
  "note": "Where “and” joins values, the source holds several entries; their conditions need not be identical. Equal values may be shown once. Entries after “also recorded” stand apart in the source; their conditions may differ.",
  "data": [
    {"smiles": "Cn1c(=O)c2ncn(C)c2n(C)c1=O", "note": "[1,3,9-trimethyl-xanthine]", "values": [
      {"measurement": "activity of structurally similar compounds tested as described in Example 46", "setting": "[1]", "result": "only weakly active"}
    ]},
    {"smiles": "CNC=Nc1ccc(Cl)cc1C", "note": "[DCDM, N-demethylchlordimeform]", "values": [
      {"measurement": "potency as partial agonist relative to octopamine", "setting": "[2]", "result": "about six-fold more potent than octopamine"}
    ]},
    {"smiles": "Clc1ccc(C(c2ccc(Cl)cc2)C(Cl)(Cl)Cl)cc1", "note": "[DDT]", "values": [
      {"measurement": "effect on cockroach brain phosphodiesterase (in words)", "setting": "[3]", "result": "activators of phosphodiesterase"},
      {"measurement": "direct effect on cockroach brain adenylate cyclase (in words)", "setting": "[4]", "result": "essentially no direct effects"}
    ]},
    {"smiles": "ClC1=C(Cl)[C@]2(Cl)[C@@H]3[C@@H]4C[C@@H]([C@H]5O[C@@H]45)[C@@H]3[C@@]1(Cl)C2(Cl)Cl", "note": "[Dieldrin]", "values": [
      {"measurement": "effect on cockroach brain phosphodiesterase (in words)", "setting": "[3]", "result": "activators of phosphodiesterase"},
      {"measurement": "direct effect on cockroach brain adenylate cyclase (in words)", "setting": "[4]", "result": "essentially no direct effects"}
    ]},
    {"smiles": "Cn1c(=O)c2[nH]cnc2n(C)c1=O", "note": "[Example 15, 1,3-dimethyl-xanthine (theophylline), reference compound]", "values": [
      {"measurement": "inhibition of leaf consumption", "setting": "[5]; 1% spray, three days", "result": "about 50%"},
      {"measurement": "Vmax (percent inhibition of feeding at the highest dose used)", "setting": "[5]; [13]", "result": 94, "unit": "%"},
      {"measurement": "EC50 (spray concentration required to cause 50% inhibition of feeding)", "setting": "[5]; [14]", "result": "1.5 % (gm/100 ml)"},
      {"measurement": "activity of structurally similar compounds tested as described in Example 46", "setting": "[1]", "result": "active"},
      {"measurement": "inhibition of hornworm nerve cord PDE activity in vitro", "setting": "[1]; at the internal concentration found (4.1 mM)", "result": "> 80", "unit": "%"},
      {"measurement": "concentration", "setting": "[6]", "result": "4100 ± 1100", "unit": "µM"}
    ]},
    {"smiles": "CC(C)Cn1c(=O)n(C)c(=O)c2[nH]cnc21", "note": "[Example 20, 1-methyl,3-isobutyl-xanthine]", "values": [
      {"measurement": "antifeeding effects in the presence of diltiazem and procaine", "setting": "[5]; Example 13", "result": "neither reversing the observed antifeeding effects"},
      {"measurement": "pestistatic and pesticidal effects in the presence of D600, verapamil, and nimodipine", "setting": "[5]; Example 14", "result": "appeared unaffected"},
      {"measurement": "Vmax (percent inhibition of feeding at the highest dose used)", "setting": "[5]; [13]", "result": 95, "unit": "%"},
      {"measurement": "potency in disruption of feeding relative to theophylline", "setting": "[5]; in vivo", "result": "about 10 fold"},
      {"measurement": "EC50 (spray concentration required to cause 50% inhibition of feeding)", "setting": "[5]; [14]", "result": "0.3 % (gm/100 ml)"},
      {"measurement": "potency in PDE inhibition relative to theophylline", "setting": "[1]", "result": "about 10 fold"},
      {"measurement": "EC50, killing of larvae", "setting": "[7]", "result": 0.007, "unit": "%"},
      {"measurement": "EC50, inhibition of reproduction", "setting": "[8]; chronic tests", "result": 0.2, "unit": "%"},
      {"measurement": "effect on adults", "setting": "[8]; doses up to 3%", "result": "unaffected"},
      {"measurement": "EC50, inhibition of reproduction", "setting": "[9]; chronic tests", "result": 0.2, "unit": "%"},
      {"measurement": "effect on adults", "setting": "[9]; doses up to 3%", "result": "unaffected"},
      {"measurement": "potency in blocking adenosine receptors compared with theophylline (in words)", "setting": "[10]", "result": "roughly equally potent"}
    ]},
    {"smiles": "Cn1c(=O)c2c(ncn2C)n(C)c1=O", "note": "[Example 23, 1,3,7-trimethyl-xanthine (caffeine)]", "values": [
      {"measurement": "EC50 (spray concentration required to cause 50% inhibition of feeding)", "setting": "[5]; in vivo", "result": 0.3},
      {"measurement": "Vmax (percent inhibition of feeding at the highest dose used)", "setting": "[5]; in vivo", "result": 98},
      {"measurement": "antifeeding effect (in words)", "setting": "[5]; in vivo", "result": "somewhat more potent than theophylline"},
      {"measurement": "activity of structurally similar compounds tested as described in Example 46", "setting": "[1]", "result": "active"},
      {"measurement": "PDE inhibition (in words)", "setting": "[1]", "result": "about equally potent"},
      {"measurement": "concentrations sufficient to kill most Manduca larvae", "setting": "[11]", "result": "0.68-2.1% and 0.8-1.8%"},
      {"measurement": "weaker than theophylline as an adenosine antagonist", "setting": "[10]", "result": 10, "unit": "fold"},
      {"measurement": "sterility", "setting": "[12]", "result": "~100", "unit": "%"}
    ]},
    {"smiles": "Cn1c(=O)[nH]c2ncn(C)c2c1=O", "note": "[Example 38, 1,7-dimethyl-xanthine]", "values": [
      {"measurement": "Vmax (percent inhibition of feeding at the highest dose used)", "setting": "[5]; [13]", "result": 30, "unit": "%"},
      {"measurement": "EC50 (spray concentration required to cause 50% inhibition of feeding)", "setting": "[5]; [14]", "result": "> 3 % (gm/100 ml)"},
      {"measurement": "activity of structurally similar compounds tested as described in Example 46", "setting": "[1]", "result": "inactive"}
    ]},
    {"smiles": "Cn1c(=O)c2[nH]c(-c3ccccc3)nc2n(C)c1=O", "note": "[Example 42, 1,3-dimethyl-8-phenyl-xanthine]", "values": [
      {"measurement": "antifeeding effect (in words)", "setting": "[5]; FIG. 1C, listed as 8-phenyltheophylline", "result": "relatively weak effects; also recorded: little antifeeding effect"},
      {"measurement": "Vmax (percent inhibition of feeding at the highest dose used)", "setting": "[5]; [13]", "result": 38, "unit": "%"},
      {"measurement": "EC50 (spray concentration required to cause 50% inhibition of feeding)", "setting": "[5]; [14]", "result": "> 3 % (gm/100 ml)"},
      {"measurement": "PDE inhibition (in words)", "setting": "[1]", "result": "very weak PDE inhibitor"},
      {"measurement": "Ki", "setting": "[10]; Daly 1982", "result": "0.12 to 1", "unit": "µM"}
    ]},
    {"smiles": "Cc1ccc2nc3sc(=O)sc3nc2c1", "note": "[Oxythioquinox]", "values": [
      {"measurement": "effect on cockroach brain phosphodiesterase (in words)", "setting": "[3]", "result": "most potent inhibitor"},
      {"measurement": "inhibition of cockroach brain phosphodiesterase", "setting": "[3]", "result": "over 80%"},
      {"measurement": "direct effect on cockroach brain adenylate cyclase (in words)", "setting": "[4]", "result": "essentially no direct effects"}
    ]},
    {"smiles": "COc1ccc(Cc2nccc3cc(OC)c(OC)cc23)cc1OC", "note": "[papavarine, reference compound]", "values": [
      {"measurement": "EC50, ability of Manducca to feed", "setting": "[5]; in vivo", "result": 0.1, "unit": "% spray"},
      {"measurement": "Ki", "setting": "[1]; read-out: Ki, insect PDE", "result": 40, "unit": "µM"}
    ]}
  ]
}
